# Results reported in ChEMBL document CHEMBL5728754 (2021).
# pKi: −log10 of the molar value.
# Target: Mitogen-activated protein kinase kinase kinase kinase 1 (Homo sapiens, UniProt Q92918)
# Test: HPK1 Biochemical Enzyme Assay: HPK1 enzyme inhibition was measured using a microfluidic mobility shift assay (MSA). The reactions were conducted in 50 μL volumes in 96-well plates, and contained 0.5 nM human full-length recombinant HPK1, 3 μM phosphoacceptor peptide, 5FAM-[…]-COOH (CPC Scientific, Sunnyvale, Calif.), test compound (11-dose 3-fold serial dilutions, 2% DMSO final) or DMSO only, 0.002% Tween-20, 1 mM DTT and 2.5 mM MgCl2 in 50 mM MOPS (3-(N-morpholino)propanesulfonic acid), pH 7.8, buffer and were initiated by addition of 75 μM ATP, following a 20-min preincubation. The reactions were conducted for 60 min at 37° C., stopped by the addition of 50 μL of 0.015 M EDTA, pH 8, and the extent of reactions (˜15-20% conversion with no inhibitor) was determined after electrophoretic separation of the fluorescently labeled peptide substrate and phosphorylated product on an LabChip EZ Reader II (PerkinElmer, Inc., Waltham, Mass.).Inhibition of HPK1 was also measured using the fluorescence based chelation-enhanced fluorescence (CHEF) method (1), using a proprietary fluorescent peptide substrate, in which a cysteine residue is alkylated with a sulfonamido-oxine based derivative to afford an amino acid termed C-Sox (CSx). The assay was conducted similarly as described for the MSA method above, but using 3 μM Ac-[CSx][…]-amide peptide substrate (also known as AQT0178 when purchased from AssayQuant Technologies Inc., Hopkinton, Mass.) and 45 μM ATP. Initial reaction velocities were determined by following the peptide fluorescence (λex=360 nm, λem=500 nm) at 30° C. for 15 min in a Tecan M1000 plate reader (Tecan Group Ltd., Männedorf, Zürich, Switzerland). […] HPK1 protein was produced in-house and preactivated by autophosphorylation of enzyme with MgATP as described in the section “Production of recombinant autophosphorylated full-length HPK1”.
# Assay type: single protein
# Mitogen-activated protein kinase kinase kinase kinase 1, sequence (Q92918 whole entry): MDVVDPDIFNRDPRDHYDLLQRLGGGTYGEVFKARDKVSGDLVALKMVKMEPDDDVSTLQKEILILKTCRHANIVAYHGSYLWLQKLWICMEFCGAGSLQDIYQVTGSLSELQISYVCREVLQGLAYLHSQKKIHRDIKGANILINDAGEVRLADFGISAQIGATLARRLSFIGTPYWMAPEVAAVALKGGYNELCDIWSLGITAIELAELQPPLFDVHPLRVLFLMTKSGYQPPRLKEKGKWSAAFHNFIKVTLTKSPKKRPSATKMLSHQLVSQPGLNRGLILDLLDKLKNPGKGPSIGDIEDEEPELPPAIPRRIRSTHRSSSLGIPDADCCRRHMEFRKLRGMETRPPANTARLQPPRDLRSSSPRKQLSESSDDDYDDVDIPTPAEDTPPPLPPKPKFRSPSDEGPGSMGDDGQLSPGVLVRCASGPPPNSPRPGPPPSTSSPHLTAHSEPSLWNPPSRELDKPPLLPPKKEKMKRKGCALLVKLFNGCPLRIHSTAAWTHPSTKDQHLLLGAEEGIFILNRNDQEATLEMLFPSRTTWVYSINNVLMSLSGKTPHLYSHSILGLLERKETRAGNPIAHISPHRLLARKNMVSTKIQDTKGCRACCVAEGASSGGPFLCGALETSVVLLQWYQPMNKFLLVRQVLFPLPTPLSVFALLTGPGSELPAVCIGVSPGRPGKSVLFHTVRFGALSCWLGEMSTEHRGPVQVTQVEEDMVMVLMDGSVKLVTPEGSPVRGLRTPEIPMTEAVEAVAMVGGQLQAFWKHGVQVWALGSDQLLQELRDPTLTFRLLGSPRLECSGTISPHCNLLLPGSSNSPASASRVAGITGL
row,SMILES,pKi
1,CCn1c(C)nnc1-c1cccc(N2Cc3c(cc(N4CCC[C@H]4C)nc3CNC)C2=O)n1,10.05
2,CNCc1nc(NC)cc2c1CN(c1cccc(-c3nncn3C(C)C)n1)C2=O,9.14
3,CNCc1nc(N2CCCC2)cc2c1CN(c1cccc(-c3nncn3[C@@H](C)CC(F)(F)F)n1)C2=O,> 10.15
4,Cc1nnc(-c2cccc(N3Cc4c(cc(N5CCCC5(C)C)nc4CN)C3=O)n2)n1C(C)C,10.00
